Laboratory results: a melting point compilation (Tetko et al.; mined from patent text by program, amines drawn as free bases though some values may be those of a salt)

First: CCCCCS(=O)(=O)NC(=O)CCc1cc(C(C)(C)C)nn1Cc1ccc(C(F)(F)F)cc1Cl
Second: CCCCCCCCCCCCn1nnc(C(C)(C)S(=O)(=O)Nc2c(C(C)C)cccc2C(C)C)n1
The melting point of the first is higher: 136 to 137 °C for the first, 63 to 65 °C for the second.

Compared with Fc1ccc(C(c2ccc(F)c(F)c2)c2ccc(F)c(F)c2)cc1F, COc1cccc(CCN2C(=O)c3c(F)c(F)c(F)c(F)c3C2(O)c2ccc(F)cc2)c1 (centres undefined) is higher in melting point: 95 to 96 °C for the first, 161 °C for the second.

First: Cc1ccccc1CN1CCN(C2=NC3(C=CC(=O)C=C3)C(c3ccccc3)=C2)CC1
Second: O=C(NC1CN2CCC1CC2)c1cc(Cl)cc2oc(-c3ccccc3)nc12 (centres undefined)
The melting point of the first is higher: 193 °C for the first, 180 to 183 °C for the second.

First: Cc1cc(C(=O)NC(CCC(=O)OC(C)(C)C)C(=O)O)ccc1-c1c2cc(F)c(=O)cc-2oc2cc(O)c(F)cc12 (centres undefined)
Second: CCOC(=O)C(=CNC(C)(C)C)C(=O)c1cc(F)c(F)c(F)c1F
The melting point of the first is higher: 134 to 138 °C for the first, 112 °C for the second.

First: CCn1nc2c(N)nc3cc(OC)ccc3c2c1CCc1ccccc1
Second: CC(C)NC1CCn2c(CCc3ccccc3)nc3cccc1c32 (centres undefined)
The melting point of the first is higher: 162 to 163 °C for the first, 95.5 to 97.7 °C for the second.

Compared with COc1ccccc1NC(=O)C(C)(C)CCCOc1cc(C)ccc1C, COc1ccc2c(c1)C(NCCCCc1ncc(Br)cc1C)=NS2(=O)=O is higher in melting point: 47 to 48 °C for the first, 161 to 162 °C for the second.

First: CC1CCCC(C)N1S(=O)(=O)N[C@@H](Cc1ccc(NC(=O)c2c(Cl)cncc2Cl)cc1)C(=O)O (some centres undefined)
Second: NNc1cc2c(nn1)CCN(C(=O)c1ccccc1F)C2
The melting point of the first is lower: 162 °C for the first, 210 to 213 °C for the second.

Compared with CCCCc1cc2c(Nc3ccc4[nH]ccc4c3)c(C#N)cnc2s1, c1cc2c3c(cccc3c1)NCN2 is lower in melting point: 210 °C for the first, 89 to 93 °C for the second.

First: CCCCCCCCCCCCCCCCOC[C@@H]1OCCC[C@H]1O (relative stereo)
Second: CCCOc1cc(C)c(C=CC(C)=CC=CC(C)=CC(=O)OCC)c(C)c1C
The melting point of the first is lower: 41.5 to 43 °C for the first, 200 to 201 °C for the second.

For c1ccc(CSc2nc3ccccn3n2)cc1, the melting point was 79 to 81 °C.
